Source: the kinase profiling compilation of Christmann-Franck et al. (2016)

What was measured:
Assay in all cases: KINOMEscan competition binding
RPS6KA1 KD1 (human) = RPS6KA1 KD1 (human) (UniProt Q15418); conditions: compound 10.0 µM
MAP3K12 (human) = MAP3K12 (human) (UniProt Q12852); conditions: compound 10.0 µM
CSNK1G2 (human) = CSNK1G2 (human) (UniProt P78368); conditions: compound 10.0 µM
CDK19 (human) = CDK19 (human) (UniProt Q9BWU1); conditions: compound 10.0 µM
MYLK3 (human) = MYLK3 (human) (UniProt Q32MK0); conditions: compound 10.0 µM
MAP3K5 (human) = MAP3K5 (human) (UniProt Q99683); conditions: compound 10.0 µM
ULK3 (mouse) = conditions: compound 10.0 µM; accession and sequence are those of the human protein

Chain of RPS6KA1 KD1 (human) (Q15418 whole entry, looked up): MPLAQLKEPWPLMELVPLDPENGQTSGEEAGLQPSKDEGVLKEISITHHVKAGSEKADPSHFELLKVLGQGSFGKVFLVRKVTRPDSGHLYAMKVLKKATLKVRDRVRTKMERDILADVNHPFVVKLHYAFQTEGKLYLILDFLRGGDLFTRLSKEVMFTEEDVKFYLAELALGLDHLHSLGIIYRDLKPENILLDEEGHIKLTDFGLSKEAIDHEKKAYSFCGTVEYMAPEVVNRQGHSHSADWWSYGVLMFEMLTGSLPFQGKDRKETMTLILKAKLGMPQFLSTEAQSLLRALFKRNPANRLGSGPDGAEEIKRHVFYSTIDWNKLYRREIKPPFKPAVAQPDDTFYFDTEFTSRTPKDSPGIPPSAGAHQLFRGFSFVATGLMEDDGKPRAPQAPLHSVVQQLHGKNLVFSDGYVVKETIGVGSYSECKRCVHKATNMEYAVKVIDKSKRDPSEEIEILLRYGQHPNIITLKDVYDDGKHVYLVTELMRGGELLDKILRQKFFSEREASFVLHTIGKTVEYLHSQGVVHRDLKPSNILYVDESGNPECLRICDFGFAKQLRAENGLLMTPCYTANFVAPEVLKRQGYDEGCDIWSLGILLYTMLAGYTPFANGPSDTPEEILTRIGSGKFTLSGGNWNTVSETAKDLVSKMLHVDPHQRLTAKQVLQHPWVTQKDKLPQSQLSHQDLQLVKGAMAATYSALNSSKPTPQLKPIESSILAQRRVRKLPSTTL
Chain of MAP3K12 (human) (Q12852 whole entry, looked up): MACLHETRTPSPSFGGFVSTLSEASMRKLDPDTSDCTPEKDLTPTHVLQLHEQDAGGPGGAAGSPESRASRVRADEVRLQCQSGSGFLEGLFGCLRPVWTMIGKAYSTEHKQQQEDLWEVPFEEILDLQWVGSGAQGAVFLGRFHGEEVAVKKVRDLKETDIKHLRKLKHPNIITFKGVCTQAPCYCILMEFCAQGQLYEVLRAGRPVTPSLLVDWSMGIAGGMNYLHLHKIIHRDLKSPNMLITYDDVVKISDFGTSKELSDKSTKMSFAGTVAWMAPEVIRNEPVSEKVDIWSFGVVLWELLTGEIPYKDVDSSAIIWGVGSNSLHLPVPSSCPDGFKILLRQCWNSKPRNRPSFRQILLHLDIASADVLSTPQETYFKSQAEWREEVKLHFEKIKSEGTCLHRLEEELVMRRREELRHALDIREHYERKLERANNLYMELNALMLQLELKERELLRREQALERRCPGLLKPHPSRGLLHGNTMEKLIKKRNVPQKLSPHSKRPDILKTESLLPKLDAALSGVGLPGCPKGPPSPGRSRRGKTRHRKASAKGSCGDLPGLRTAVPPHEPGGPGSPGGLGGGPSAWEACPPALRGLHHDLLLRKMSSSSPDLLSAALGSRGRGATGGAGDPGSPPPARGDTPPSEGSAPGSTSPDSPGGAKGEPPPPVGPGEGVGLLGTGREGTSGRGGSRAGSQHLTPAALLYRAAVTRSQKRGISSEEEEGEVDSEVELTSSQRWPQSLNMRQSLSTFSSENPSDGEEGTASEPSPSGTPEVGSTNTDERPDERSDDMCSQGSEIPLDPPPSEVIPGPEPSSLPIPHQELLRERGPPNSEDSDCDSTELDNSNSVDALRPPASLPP
Chain of CSNK1G2 (human) (P78368 whole entry, looked up): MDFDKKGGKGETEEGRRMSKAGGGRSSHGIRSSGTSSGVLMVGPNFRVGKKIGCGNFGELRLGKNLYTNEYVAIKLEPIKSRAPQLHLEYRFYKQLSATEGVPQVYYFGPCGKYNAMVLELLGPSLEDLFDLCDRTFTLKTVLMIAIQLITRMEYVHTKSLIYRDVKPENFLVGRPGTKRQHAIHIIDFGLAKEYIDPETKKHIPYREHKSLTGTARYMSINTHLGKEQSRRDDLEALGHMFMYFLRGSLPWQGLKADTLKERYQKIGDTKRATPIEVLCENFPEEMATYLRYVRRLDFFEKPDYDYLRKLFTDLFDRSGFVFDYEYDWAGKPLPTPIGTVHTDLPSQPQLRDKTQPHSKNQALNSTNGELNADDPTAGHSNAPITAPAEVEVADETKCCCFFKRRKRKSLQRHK
Chain of MYLK3 (human) (Q32MK0 whole entry, looked up): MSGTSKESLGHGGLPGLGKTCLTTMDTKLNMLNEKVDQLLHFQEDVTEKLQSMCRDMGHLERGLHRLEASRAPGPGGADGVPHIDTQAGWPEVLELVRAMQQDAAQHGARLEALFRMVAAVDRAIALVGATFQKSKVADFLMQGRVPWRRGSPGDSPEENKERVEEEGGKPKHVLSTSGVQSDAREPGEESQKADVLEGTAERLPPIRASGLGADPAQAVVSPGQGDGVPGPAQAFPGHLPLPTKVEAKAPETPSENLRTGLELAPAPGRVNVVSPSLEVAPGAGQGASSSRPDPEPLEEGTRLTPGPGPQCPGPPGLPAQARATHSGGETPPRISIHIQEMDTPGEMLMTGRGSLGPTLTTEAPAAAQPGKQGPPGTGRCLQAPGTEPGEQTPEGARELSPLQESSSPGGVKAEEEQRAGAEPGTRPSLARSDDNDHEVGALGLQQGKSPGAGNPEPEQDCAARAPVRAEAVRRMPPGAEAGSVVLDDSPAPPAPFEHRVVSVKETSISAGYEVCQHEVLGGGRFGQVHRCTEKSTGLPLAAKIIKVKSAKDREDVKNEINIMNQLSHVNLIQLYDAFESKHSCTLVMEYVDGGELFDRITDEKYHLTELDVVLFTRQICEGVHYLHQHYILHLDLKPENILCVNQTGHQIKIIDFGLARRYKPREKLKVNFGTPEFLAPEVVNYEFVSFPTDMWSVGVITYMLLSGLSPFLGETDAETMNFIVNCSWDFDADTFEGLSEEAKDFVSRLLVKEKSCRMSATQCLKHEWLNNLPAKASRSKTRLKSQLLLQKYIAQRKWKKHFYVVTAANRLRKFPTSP
Chain of MAP3K5 (human) (Q99683 whole entry, looked up): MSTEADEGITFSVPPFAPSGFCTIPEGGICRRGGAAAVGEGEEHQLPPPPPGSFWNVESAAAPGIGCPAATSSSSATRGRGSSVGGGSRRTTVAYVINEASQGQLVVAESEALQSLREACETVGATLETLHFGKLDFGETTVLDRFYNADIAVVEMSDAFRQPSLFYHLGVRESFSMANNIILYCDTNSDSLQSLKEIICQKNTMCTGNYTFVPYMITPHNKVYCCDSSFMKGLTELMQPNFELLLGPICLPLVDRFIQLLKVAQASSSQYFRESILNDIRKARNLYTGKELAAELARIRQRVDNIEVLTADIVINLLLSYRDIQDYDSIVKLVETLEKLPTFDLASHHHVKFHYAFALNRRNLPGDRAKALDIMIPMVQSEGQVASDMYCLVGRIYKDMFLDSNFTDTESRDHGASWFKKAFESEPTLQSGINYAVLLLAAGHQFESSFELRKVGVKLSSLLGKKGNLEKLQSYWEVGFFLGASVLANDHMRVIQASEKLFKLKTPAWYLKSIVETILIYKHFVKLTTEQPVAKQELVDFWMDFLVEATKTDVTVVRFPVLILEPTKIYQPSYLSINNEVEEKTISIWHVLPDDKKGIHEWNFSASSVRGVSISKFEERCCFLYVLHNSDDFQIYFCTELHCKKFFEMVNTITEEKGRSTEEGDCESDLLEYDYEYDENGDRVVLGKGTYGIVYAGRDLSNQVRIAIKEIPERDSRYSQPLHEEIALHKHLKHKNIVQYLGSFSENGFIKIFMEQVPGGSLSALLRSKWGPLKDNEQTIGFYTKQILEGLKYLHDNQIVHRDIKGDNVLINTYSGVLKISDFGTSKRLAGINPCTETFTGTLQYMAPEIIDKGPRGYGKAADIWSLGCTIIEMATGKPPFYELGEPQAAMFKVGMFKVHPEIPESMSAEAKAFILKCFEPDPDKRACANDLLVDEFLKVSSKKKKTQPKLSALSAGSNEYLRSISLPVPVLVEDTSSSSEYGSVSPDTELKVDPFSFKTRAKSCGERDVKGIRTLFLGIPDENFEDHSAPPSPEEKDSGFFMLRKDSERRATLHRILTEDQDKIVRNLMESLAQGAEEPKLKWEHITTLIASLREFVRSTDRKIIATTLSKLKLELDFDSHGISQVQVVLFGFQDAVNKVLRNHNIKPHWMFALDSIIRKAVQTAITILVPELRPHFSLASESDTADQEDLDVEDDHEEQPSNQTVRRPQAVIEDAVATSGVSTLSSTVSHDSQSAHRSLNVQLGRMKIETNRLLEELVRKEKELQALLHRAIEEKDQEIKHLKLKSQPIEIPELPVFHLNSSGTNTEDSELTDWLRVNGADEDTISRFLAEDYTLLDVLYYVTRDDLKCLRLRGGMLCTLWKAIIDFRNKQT
Chain of CDK19 (human) (Q9BWU1 whole entry, looked up): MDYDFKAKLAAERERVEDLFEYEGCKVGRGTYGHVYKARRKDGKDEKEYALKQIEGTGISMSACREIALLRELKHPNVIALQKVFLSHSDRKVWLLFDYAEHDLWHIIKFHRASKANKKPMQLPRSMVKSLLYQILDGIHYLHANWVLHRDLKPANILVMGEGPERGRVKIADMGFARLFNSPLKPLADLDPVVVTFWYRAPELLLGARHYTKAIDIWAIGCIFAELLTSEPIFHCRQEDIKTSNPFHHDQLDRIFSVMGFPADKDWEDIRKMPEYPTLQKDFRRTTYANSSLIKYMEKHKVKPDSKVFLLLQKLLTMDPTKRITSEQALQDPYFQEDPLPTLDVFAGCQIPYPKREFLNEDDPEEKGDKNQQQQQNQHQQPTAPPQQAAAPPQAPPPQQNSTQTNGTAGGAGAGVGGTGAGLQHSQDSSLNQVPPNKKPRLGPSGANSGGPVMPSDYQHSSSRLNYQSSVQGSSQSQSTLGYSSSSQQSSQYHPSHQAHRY

Structure (SMILES)	inhibition of binding (RPS6KA1 KD1 (human)) [%]	inhibition (MAP3K12 (human)) [%]	inhibition of binding (ULK3 (mouse)) [%]	other results
O[C@H]1CC[C@H](Nc2nccc(-c3n[nH]c4ccccc34)n2)CC1	–	–	–	inhibition of binding (MAP3K5 (human)): < 50%
O[C@H]1CC[C@H](Nc2nccc(-n3ccc4ccccc43)n2)CC1	< 50	< 50	–	–

Now from value to compound, other results behind:

inhibition of binding (RPS6KA1 KD1 (human)) [%]	inhibition (MAP3K12 (human)) [%]	inhibition of binding (ULK3 (mouse)) [%]	Structure (SMILES)	other results
< 50	< 50	–	O[C@H]1CC[C@H](Nc2nccc(-n3nnc4ccccc43)n2)CC1	inhibition of binding (CSNK1G2 (human)): < 50%
< 50	< 50	–	O[C@H]1CC[C@H](Nc2nccc(-n3ncc4ccccc43)n2)CC1	inhibition (CDK19 (human)): < 50%; inhibition of binding (MYLK3 (human)): < 50%
–	–	< 50	N[C@H]1CC[C@H](Nc2nccc(-n3nnc4ccccc43)n2)CC1	–
–	–	< 50	O=C([C@H]1CC[C@H](Nc2nccc(-n3nnc4ccccc43)n2)CC1)N1CCOCC1	–
